Tests used:
amputation wound = test: Example 4: treatment of an amputation wound; assay type: in vivo, human; settings: 750 mg×3, prescribed May 24, 2012, before the test treatments
Experimental: If nothing else is mentioned herein below, the treatment preparation used in the examples below was prepared just before application by mixing one volume of a component containing aqueous NaOCl in an amount of 1-2% (by weight) with one volume of a component containing amino acids lys+Glu+Leu (1:1:1 relation and 0.7-0.8% total amino content by weight), TiO2 (0.04% by weight), NaCl (0.3-0.6% by weight), Na-CMC (medium viscosity; 3% by weight), and NaOH (added to adjust the pH to be 9.5-10.5 by weight). Medium viscosity of carboxymethyl cellulose is defined as 400-800 (mPas).
The components were mixed and the resulting mixture, i.e. the treatment preparation, was applied immediately (within seconds at the most one minute) to the treatment site, e.g. an ulcer. In this way there was provided that the mentioned chemical reaction forming halogenated amino acids occurs in contact with the treatment site. The resulting chemical reaction was allowed to proceed so as to separate dead tissue from healthy tissue as well as decomposing and/or destroying bacteria. The mixture in the form a solution was left within the treatment area, e.g. ulcer, for 5 minutes or less, wherein the reaction proceeds such that bubbles and a smell of chlorine appear and then disappear in the preparation. […]

Staphylococcus = test: Example 2: bacterial cultivation, resistance; assay type: cell-based; settings: bacterial cultivation from the leg ulcer

Row | Structure (SMILES) | effect of antibiotic on non-healing amputation wound (amputation wound) | resistance of cultivated Staphylococcus (Staphylococcus)
1 | Cc1onc(-c2c(F)cccc2Cl)c1C(=O)N[C@@H]1C(=O)N2[C@@H]1SC(C)(C)[C@@H]2C(=O)O [Heracillin®] | did not improve their condition | –
2 | CC1(C)S[C@@H]2[C@H](NC(=O)COc3ccccc3)C(=O)N2[C@H]1C(=O)O [fenoximetylpenicillin] | – | resistant
3 | Cc1onc(-c2c(F)cccc2Cl)c1C(=O)N[C@@H]1C(=O)N2[C@@H]1SC(C)(C)[C@@H]2C(=O)O [flukloxacillin] | – | resistant
